Results from PMC4457528, “Identification of Novel Small Molecule Inhibitors of Oncogenic RET Kinase” (PLoS ONE, 2015).

What was measured:
Assay in all cases: KinomeScan kinase panel, single concentration 10 µM
Format in all cases: binding
[1] = biological target: T1, KinomeScan kinase panel (Homo sapiens, UniProt O95835); conditions: LATS1, 10 µM; read-out: score (%)
T1 construct: purchased DiscoveRx (KinomeScan)
T1 sequence (O95835 1-1130): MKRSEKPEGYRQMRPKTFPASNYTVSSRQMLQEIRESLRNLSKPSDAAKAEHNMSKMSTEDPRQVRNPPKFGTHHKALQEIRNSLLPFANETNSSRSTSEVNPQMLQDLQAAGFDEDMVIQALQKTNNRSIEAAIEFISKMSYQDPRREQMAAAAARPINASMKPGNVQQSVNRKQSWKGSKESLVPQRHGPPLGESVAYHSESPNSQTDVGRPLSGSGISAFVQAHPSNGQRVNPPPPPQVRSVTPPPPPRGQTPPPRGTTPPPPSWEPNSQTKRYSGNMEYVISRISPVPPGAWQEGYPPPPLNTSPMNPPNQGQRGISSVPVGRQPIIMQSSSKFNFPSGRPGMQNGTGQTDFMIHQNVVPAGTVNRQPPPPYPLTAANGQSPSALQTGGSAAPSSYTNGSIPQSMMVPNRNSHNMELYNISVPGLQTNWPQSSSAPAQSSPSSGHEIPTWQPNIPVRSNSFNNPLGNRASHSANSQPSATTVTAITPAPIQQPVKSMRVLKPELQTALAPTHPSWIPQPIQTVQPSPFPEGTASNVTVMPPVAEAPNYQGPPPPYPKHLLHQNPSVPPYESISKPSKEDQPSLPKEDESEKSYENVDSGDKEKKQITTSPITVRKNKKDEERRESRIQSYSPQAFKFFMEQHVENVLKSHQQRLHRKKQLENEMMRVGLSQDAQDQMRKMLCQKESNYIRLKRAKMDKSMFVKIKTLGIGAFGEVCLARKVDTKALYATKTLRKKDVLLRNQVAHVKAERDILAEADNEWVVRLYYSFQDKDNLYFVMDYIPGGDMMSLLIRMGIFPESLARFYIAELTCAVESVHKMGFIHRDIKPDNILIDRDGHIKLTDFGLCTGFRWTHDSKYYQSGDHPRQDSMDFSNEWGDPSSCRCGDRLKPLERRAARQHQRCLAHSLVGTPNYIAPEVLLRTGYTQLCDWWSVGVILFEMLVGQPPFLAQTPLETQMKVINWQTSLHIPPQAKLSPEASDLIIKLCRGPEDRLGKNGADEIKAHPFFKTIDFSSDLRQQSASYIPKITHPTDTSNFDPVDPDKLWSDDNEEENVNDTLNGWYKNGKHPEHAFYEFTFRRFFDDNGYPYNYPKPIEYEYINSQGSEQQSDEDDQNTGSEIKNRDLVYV

[2] = biological target: T2, KinomeScan kinase panel (Homo sapiens, UniProt P30530); conditions: AXL, 10 µM; read-out: score (%)
T2 construct: purchased DiscoveRx (KinomeScan)
T2 sequence (P30530 26-894): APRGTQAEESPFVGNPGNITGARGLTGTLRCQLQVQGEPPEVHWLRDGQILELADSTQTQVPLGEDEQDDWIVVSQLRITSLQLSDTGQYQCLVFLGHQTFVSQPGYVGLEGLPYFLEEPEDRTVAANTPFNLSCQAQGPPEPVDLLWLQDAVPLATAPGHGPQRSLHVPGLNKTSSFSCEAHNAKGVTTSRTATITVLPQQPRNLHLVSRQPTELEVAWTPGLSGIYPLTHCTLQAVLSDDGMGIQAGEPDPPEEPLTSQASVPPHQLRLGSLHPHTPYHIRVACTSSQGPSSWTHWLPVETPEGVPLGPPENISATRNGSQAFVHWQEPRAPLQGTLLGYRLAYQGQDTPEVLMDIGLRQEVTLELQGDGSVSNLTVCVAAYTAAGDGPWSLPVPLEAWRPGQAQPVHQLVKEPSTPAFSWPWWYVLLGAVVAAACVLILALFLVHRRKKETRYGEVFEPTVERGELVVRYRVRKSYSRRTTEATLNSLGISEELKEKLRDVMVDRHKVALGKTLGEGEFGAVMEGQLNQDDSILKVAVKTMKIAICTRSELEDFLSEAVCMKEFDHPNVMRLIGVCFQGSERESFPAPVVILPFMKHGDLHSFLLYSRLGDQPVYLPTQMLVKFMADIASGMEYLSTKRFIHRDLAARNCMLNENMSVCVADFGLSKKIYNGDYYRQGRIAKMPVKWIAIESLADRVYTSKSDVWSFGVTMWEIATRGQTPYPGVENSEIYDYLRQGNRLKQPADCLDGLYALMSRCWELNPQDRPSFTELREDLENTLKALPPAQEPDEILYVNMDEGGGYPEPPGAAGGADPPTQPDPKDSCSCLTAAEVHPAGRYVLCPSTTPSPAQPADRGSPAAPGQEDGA

[3] = biological target: T3, KinomeScan kinase panel (Homo sapiens, UniProt P54756); conditions: EPHA5, 10 µM
T3 construct: purchased DiscoveRx (KinomeScan)

[4] = biological target: T4, KinomeScan kinase panel (Homo sapiens, UniProt Q9UIK4); conditions: DAPK2, 10 µM; read-out: score (%)
T4 construct: purchased DiscoveRx (KinomeScan)
T4 sequence (Q9UIK4 whole entry): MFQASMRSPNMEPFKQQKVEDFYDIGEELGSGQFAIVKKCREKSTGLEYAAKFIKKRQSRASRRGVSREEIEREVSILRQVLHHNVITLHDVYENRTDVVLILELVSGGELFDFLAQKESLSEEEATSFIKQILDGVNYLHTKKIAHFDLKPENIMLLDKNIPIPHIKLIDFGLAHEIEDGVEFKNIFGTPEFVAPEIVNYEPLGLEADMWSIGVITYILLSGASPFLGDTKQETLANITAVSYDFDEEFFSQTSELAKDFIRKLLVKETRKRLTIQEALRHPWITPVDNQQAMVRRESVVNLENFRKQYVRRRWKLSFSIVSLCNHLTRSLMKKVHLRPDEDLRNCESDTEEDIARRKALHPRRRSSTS

T3 sequence (P54756 25-1037): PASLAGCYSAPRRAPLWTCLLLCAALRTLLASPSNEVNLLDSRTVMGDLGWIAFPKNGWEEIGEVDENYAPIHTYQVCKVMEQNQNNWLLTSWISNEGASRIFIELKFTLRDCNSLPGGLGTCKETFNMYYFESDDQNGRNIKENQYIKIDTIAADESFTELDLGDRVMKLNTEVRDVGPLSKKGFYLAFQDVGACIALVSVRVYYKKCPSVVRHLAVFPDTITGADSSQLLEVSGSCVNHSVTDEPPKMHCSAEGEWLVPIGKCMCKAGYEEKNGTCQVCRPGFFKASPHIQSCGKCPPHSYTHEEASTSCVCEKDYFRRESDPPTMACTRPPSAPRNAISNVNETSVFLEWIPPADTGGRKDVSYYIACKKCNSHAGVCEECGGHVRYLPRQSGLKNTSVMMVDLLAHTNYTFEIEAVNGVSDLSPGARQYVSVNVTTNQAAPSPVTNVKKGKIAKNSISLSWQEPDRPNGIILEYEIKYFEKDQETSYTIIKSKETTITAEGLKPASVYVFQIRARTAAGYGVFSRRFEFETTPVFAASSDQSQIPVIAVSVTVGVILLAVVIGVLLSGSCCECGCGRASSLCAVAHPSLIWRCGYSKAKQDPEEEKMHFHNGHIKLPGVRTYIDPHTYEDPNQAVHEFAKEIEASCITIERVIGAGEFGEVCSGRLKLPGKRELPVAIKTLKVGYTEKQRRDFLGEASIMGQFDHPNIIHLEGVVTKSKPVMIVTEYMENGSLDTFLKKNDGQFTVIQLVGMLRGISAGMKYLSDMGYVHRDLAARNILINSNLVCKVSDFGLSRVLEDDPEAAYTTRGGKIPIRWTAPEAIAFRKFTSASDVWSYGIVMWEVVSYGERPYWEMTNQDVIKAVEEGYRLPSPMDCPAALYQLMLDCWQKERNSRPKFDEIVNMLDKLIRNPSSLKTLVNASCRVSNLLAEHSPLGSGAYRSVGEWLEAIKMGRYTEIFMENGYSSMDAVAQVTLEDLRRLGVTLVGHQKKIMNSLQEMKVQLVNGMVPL

## CCN1CCN(Cc2ccc(NC(=O)c3ccc(C)c(NC(=O)c4cncc(-c5cccs5)c4)c3)cc2C(F)(F)F)CC1 [ALW-II-41-27]
[1]
  remaining binding at 10 µM: > 30%
[2]
  remaining binding at 10 µM: > 30%
[3]
  score (%): 0.25%
[4]
  remaining binding at 10 µM: > 30%

## CCN1CCN(Cc2ccc(NC(=O)c3ccc(C)c(/C=C/c4cnc5[nH]ccc5c4Cl)c3)cc2C(F)(F)F)CC1 [HG-6-63-01, (E)-3-(2-(4-chloro-1H-pyrrolo[2,3-b]pyridin-5-yl)vinyl)-N-(4-((4-ethylpiperazin-1-yl)methyl)-3-(trifluoromethyl)phenyl)-4-methylbenzamide]
[1]
  remaining binding at 10 µM: > 30%
[2]
  remaining binding at 10 µM: 17%
[3]
  score (%): 3.3%
[4]
  remaining binding at 10 µM: > 30%

## CCN1CCN(Cc2ccc(NC(=O)c3ccc(C)c(C#Cc4cccnc4)c3)cc2C(F)(F)F)CC1 [XMD15-44]
[1]
  remaining binding at 10 µM: 20%
[2]
  remaining binding at 10 µM: 2.9%
[3]
  score (%): 1.2%
[4]
  remaining binding at 10 µM: > 30%
